Test system: Plasmopara viticola
Assay: Curative action against Plasmopara viticola on potted grapevines
Type: in vivo, Plasmopara viticola on grapevines cv. Müller-Thurgau
Settings: grapevine leaves, untreated control 73% infection
Experimental: Curative action against Plasmopara viticola
Leaves of potted grapevines cv. “Müller-Thurgau” were inoculated with an aqueous zoospore suspension of Plasmopara viticola. The grapevines were subsequently kept in a water-vapor-saturated chamber at 22-24° C. for 48 hours. They were then removed from the chambers and, after they had dried, sprayed to run off point with an aqueous preparation of active compound which had been prepared from a stock solution comprising 10% of active compound, 63% of cyclohexanone and 27% of emulsifier. After the spray coating had dried on, the plants were cultivated for another 5 days in the greenhouse at 20-30° C. After this time, the plants were returned into a humid chamber for 16 hours to accelerate the eruption of sporangiophore. The extent to which the disease had developed on the undersides of the leaves was then determined visually in %.
Evaluation is carried out by determining the infected leaf areas in percent. These percentages are converted into efficacies. The expected efficacies of the active compound mixtures are determined using Colby's formula [R. S. Colby, Weeds 15, 20-22 (1967)] and compared with the observed efficacies. Colby's formula: […]
expected efficacy, expressed in % of the untreated control, when using the mixture of the active compounds A, B and C at the concentrations a, b and c x efficacy, expressed in % of the untreated control, when using active compound A at a concentration of a y efficacy, expressed in % of the untreated control, when using active compound B at a concentration of b z efficacy, expressed in % of the untreated control, when using active compound C at a concentration of c The efficacy(E) is calculated as follows using Abbot's formula: […]
α corresponds to the fungal infection of the treated plants in % and β corresponds to the fungal infection of the untreated (control) plants in % An efficacy of 0 means that the infection level of the treated plants corresponds to that of the untreated control plants; an efficacy of 100 means that the treated plants were not infected.

[1] = 1 ppm active compound in the spray liquor

SMILES	Efficacy in % of the untreated control [1]	Efficacy in % of the untreated control (4 ppm active compound in the spray liquor)	Efficacy in % of the untreated control (16 ppm active compound in the spray liquor)
Cc1cccc(C)c1N(C(=O)CCl)C1CCOC1=O (stereo not shown) [II.2, Ofurace]	0%	73%	73%
COCC(=O)N(c1c(C)cccc1C)C(C)C(=O)OC (stereo not shown) [II.3, metalaxyl]	59%		

Reference: US6365614B1, “Fungicides mixtures” (priority 1997, dated 2002)
